Source: paper PMC12305494, “Discovery of PXR Antagonist MI891 and PXR Degrader MI1013 and Their Roles in Hepatic Gene Regulation” (Journal of Medicinal Chemistry, 2025)

Experiments:
[1] = biological target: T1, human CAR LBD (Homo sapiens, UniProt Q14994); test: LanthaScreen TR-FRET CAR Coactivator assay; type: biochemical; conditions: nb = no binding
T1 sequence (Q14994 103-352): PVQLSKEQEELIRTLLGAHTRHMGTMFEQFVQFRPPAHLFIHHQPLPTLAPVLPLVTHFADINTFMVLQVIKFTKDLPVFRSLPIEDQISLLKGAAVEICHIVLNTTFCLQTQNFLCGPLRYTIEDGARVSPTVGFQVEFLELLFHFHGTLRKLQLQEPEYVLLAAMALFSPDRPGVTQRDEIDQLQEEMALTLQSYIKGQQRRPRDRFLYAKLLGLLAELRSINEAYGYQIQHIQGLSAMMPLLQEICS
Description: We utilized the LanthaScreen TR-FRET CAR Coactivator Binding Assay Kit, goat (Thermo Fisher Scientific, Cat. No. PV4836), which includes GST-tagged human CAR LBD and a fluorescein-labeled PGC1α coactivator peptide. The assay was performed with slight modifications to the manufacturer’s protocol, as previously reported. […] The interaction with the PXR ligand-binding domain (LBD) was assessed using the LanthaScreen TR-FRET PXR Competitive Binding Assay (Thermo Fisher Scientific, PV4839), as previously described. This assay quantifies the ability of test compounds to displace a fluorescent PXR ligand from the receptor. Fluorescence readings were taken on a Synergy 2 Multi-Mode Microplate Reader (BioTek, Winooski, VT). The half-maximal inhibitory concentration (IC50) for PXR LBD was calculated from at least eight data points using GraphPad Prism software.

[2] = biological target: rhesus monkey PXR (oPXR) (Macaca mulatta, UniProt Q8SQ01); test: Rhesus monkey PXR luciferase reporter assay; type: cell-based; conditions: rifampicin as prototypical inducer
Description: The CYP3A4 gene promoter luciferase reporter construct (p3A4-luc) bears a distal XREM (−7836/–7208) and a proximal promoter sequence (prPXRE, −362/+53) from the CYP3A4 gene promoter region. […] The human PXR expression vector (variant 1, NM_003889.3) as well as vectors for mouse, rat, and monkey orthologues were described in our recent paper (39). […] Rhesus monkey, mouse, and rat PXR expression vectors (100 ng/well each) were also obtained from GenScript. […] Carlberg (University of Kuopio, Kuopio, Finland).
The cells were cultured in DMEM medium (Merck) supplemented with 10% fetal bovine serum.

[3] = system: MOLT4 cells; test: Off-target quantitative global proteomics in MOLT4 cells; type: cell-based, human
Description: Cells were lysed by the addition of lysis buffer (8 M Urea, 50 mM NaCl, 50 mM […] (EPPS) pH 8.5, Protease and Phosphatase inhibitors) and homogenization by bead beating (BioSpec) for three repeats of 30 s at 2400. Bradford assay was used to determine the final protein concentration in the clarified cell lysate. 50 μg of protein for each sample was reduced, alkylated, and precipitated using methanol/chloroform as previously described and the resulting washed precipitated protein was allowed to air-dry. Precipitated protein was resuspended in 4 M Urea, 50 mM HEPES pH 7.4, followed by dilution to <1 M urea with the addition of 200 mM EPPS, pH 8. Proteins were digested overnight at 37 °C with LysC (1:50; enzyme:protein) and trypsin (1:50; enzyme:protein). Sample digests were acidified with formic acid to a pH of 2–3 prior to desalting using C18 solid-phase extraction plates (SOLA, Thermo Fisher Scientific). Desalted peptides were dried in a vacuum-centrifuge and reconstituted in 0.1% formic acid for LC-MS analysis. […]
The diaPASEF raw file processing and controlling peptide and protein level false discovery rates, assembling proteins from peptides, and protein quantification from peptides were performed using library-free analysis in DIA-NN 1.8. […]

rhesus monkey PXR (oPXR), sequence (Q8SQ01 whole entry): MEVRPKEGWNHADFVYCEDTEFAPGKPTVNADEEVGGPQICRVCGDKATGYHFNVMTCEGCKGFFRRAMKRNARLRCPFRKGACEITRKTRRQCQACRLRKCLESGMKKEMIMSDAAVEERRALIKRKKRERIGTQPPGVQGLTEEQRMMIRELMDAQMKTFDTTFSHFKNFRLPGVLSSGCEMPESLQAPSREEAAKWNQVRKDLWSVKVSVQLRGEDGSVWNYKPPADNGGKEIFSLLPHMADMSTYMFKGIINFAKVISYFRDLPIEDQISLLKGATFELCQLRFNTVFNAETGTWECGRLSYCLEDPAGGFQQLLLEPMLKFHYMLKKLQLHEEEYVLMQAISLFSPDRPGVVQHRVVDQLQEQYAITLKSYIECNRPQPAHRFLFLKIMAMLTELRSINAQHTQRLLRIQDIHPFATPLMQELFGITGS

Row | Molecule | CAR TR-FRET (EC50, μM) ([1]; listed as 11 (MI891)) | CAR TR-FRET (EC50, μM) ([1]; listed as MI891) | activity on rhesus monkey PXR (oPXR) [2] | IKZF1, IKZF3 and ZFP91 levels, global proteomics [3] | GSPT1 expression, global proteomics ([3]; 2 μM of MI1013)
1 | NC(=O)c1cc(Cn2cc(-c3c(-c4ccc(Cl)cc4)nc4c(F)cc(F)cn34)nn2)ccc1Cl [Compound 11, 2-Chloro-5-((4-(2-(4-chlorophenyl)-6,8-difluoroimidazo[1,2-a]pyridin-3-yl)-1H-1,2,3-triazol-1-yl)methyl)-benzamide] | nb | no binding activity | full agonism | – | –
2 | N-(4-((1-(2,5-dimethoxyphenyl)-5-methyl-1H-1,2,3-triazol-4-yl)sulfonyl)phenyl)-3-(2-(2-(2-(4-(((2-(2,6-dioxopiperidin-3-yl)-1,3-dioxoisoindolin-4-yl)amino)methyl)-1H-1,2,3-triazol-1-yl)ethoxy)ethoxy)ethoxy)propenamide [Compound 36] | – | – | – | degradation | remains undegraded
